The text below walks through data of patent publication US20180344637A1, “WATER SOLUBLE MICELLAR DRUG DELIVERY AGENTS” (Wayne State University, priority 2015, published 2018).

What is called cell viability is a per cent measure of how many cells are alive, often set against a control. One may read the IC50 as the midpoint of a concentration-inhibition curve. Read a high IC50 as a need for much substance.

Values after ≈ are worked out from the molar mass of the structure shown.

In series [1] the test system is CD44. Put plainly: Western blot analysis of CD44 expression. In kind it is cell-based, human. As to conditions: 250 nM, 48 h, triple marker positive CSLCs, versus untreated and HA-SMA controls. As to the method: Triple marker positive CSLCs derived from MiaPaCa-2 were plated and allowed to attach for 36 h. CDF loaded formulations were directly added to cell cultures at 250 nM concentration and incubated for 48 h. Untreated (control) and HASMA treated (control) cells were incubated in the medium containing an equivalent concentration of PBS. After incubation, the cells were collected in PBS, and whole cell lysate was prepared by suspending the cells in 150 μL of lysis buffer [1 mol/L Tris-HCl (pH 7.5), 150 mmol/L NaCl, 1 mmol/L EDTA, 0.1% Triton X-100, 0.1 mmol/L sodium orthovanadate, 1 mmol/L phenylmethylsulfonyl fluoride ([…]), and 2 μg/mL leupeptin and 2μg,/mL aprotinin] lysed, and centrifuged. The cells were disrupted by sonication (Branson Ultrasonics, Danbury, Conn.), and the total protein content was determined by bicinchoninic acid (BCA) assay. For immunoblotting, 30 μg of total proteins was separated on SDS-PAGE, electro-transferred onto nitrocellulose membranes, and probed with specific antibodies ([…], MA). Detection of specific proteins was carried out with an enhanced chemiluminescence western blotting kit according to the manufacturer's instructions (Life Technologies, Waltham, Mass.).
For orientation: In western blotting, separated proteins are transferred to a membrane and probed.

The subject of series [2] is MiaPaCa-2 cells. Put plainly: In vitro MTT cytotoxicity assay. In kind it is cell-based, human. As to conditions: 72 h. As to the method: (§1) Human pancreatic cancer cell lines MiaPaCa-2 and AsPC-1 were used. Both cell lines were maintained in Dulbecco's Modified Eagle's Medium (DMEM; Invitrogen), supplemented with 5% FBS, 2 mmol/L glutamine, 50 units/mL penicillin, and 50 μg/mL streptomycin under standard culture conditions. The cell lines have been tested and authenticated in the core facility of Applied Genomics Technology Center at Wayne State University. The method used for testing was short tandem repeat profiling using the PowerPlex 16 System from Promega.
(§2) The in vitro cytotoxicity of free CDF, CUR, SMA and micelles was evaluated by MTT cytotoxicity assay based on measurement of the activity of enzymes present in live cells that reduces MTT to give a purple color. Cells were seeded in a 96-well culture plate and the formulations were applied 24 h after seeding as freshly prepared solutions in PBS (pH 7.4) using between 100 to 1000 nM concentrations of the test agents. MTT (0.5 mg/ml) was added at the end of treatment (72 h) and plates incubated at 37° C. for 2 h, followed by replacement of media with DMSO at room temperature for 30 min and absorbance were measured at 590 nm using Ultra Multi-functional Micro plate Reader (TECAN).

For series [3], the system named is AsPC-1 cells. Put plainly: In vitro MTT cytotoxicity assay. The format is cell-based, human. As to conditions: 72 h. On the procedure: as §1, §2
(Tetrazolium dyes change colour on reduction, which living cells bring about.)

Series [4] concerns MiaPaCa-2 cells. Put plainly: MTT assay before and after HA receptor blockade. The note with it: MiaPaCa-2, 72 h. In kind it is cell-based, human. The source says: FIG. 13(c) and FIG. 13(d) show comparisons of percent cell viability of different formulations before and after HA receptor blockade.
For series [5] the following is noted: cited from earlier work.
In series [6] the test system is CD44+ cells (CD44+/CD133+/EpCAM+ CSLCs from MiaPaCa-2). As to the kind of experiment: MTT assay on CD44+ versus CD44− pancreatic cancer cells. The note with it: 72 h. The format is cell-based, human. On the procedure: The CSLCs (triple-marker positive; CD44+/CD133+/EpCAM+) and triple-marker negative (CD44−/CD133−/EpCAM−) cells were isolated from human pancreatic MiaPaCa-2 cells, by fluorescence-activated cell sorting (FACS) technique. The postsorted cells were subsequently maintained in 5% FBS-DMEM media at 37° C. under standard culture conditions.
Triple-marker positive (CD44+/CD133+/EpCAM+) CSLCs and triple-marker-negative (CD44−/CD133−/EpCAM−) cells were isolated and cultured as described in above and seeded in a 96-well culture plate, and subsequently free CDF, HA-SMA, nontargeted (SMA-CDF), and targeted (HA-SMA-CDF) nanomicelles were applied 24 h after seeding as a freshly prepared solution in DMSO diluted with PBS (pH 7.4) at between 250 to 750 nM concentration, MTT reagent was added and the absorbance measured at 595 nm using an Ultramultifunctional Microplate Reader ([…], Switzerland), and percent cell viability was determined by comparing the values with appropriate controls.

On to `COc1cc(/C=C/C(=O)C(=Cc2ccc(F)c(F)c2)C(=O)/C=C/c2ccc(O)c(OC)c2)ccc1O` [CDF, curcumin difluorinated], for which the “expression of CD44 levels (in words)” value in series [1] is listed as “marked reduction”. Moreover, the cell viability in series [2] (1000 nM CDF equivalent concentration, MiaPaCa-2) came out at 28.47±2.29%. For the same compound, the “anticancer activity compared to free CMN (in words)” value in series [2] (MTT) is recorded as “significantly improved anticancer activity”. The 50% inhibitory concentration (IC50) was 0.4 ± 0.00453 µM in series [2] (MiaPaCa-2 cells); 0.81 ± 0.00151 µM in series [3]; 0.473 ± 0.00869 µM in series [4] (after receptor blockade using free soluble HA); 0.465 ± 0.00734 µM in series [4] (before the blockade of HA receptors); 0.41 ± 0.00364 µM in series [6]. Also, the water solubility in series [5] (free form) is 0.6 µg/mL (≈ 1.22 µM).
For `CC(=O)O[C@@]12CO[C@@H]1C[C@H](O)[C@@]1(C)C(=O)[C@H](O)C3=C(C)[C@@H](OC(=O)[C@H](O)[C@@H](NC(=O)OC(C)(C)C)c4ccccc4)C[C@@](O)([C@@H](OC(=O)c4ccccc4)[C@H]21)C3(C)C` [Docetaxel, docetaxel], the “water solubility (estimated)” value in series [5] is 10 to 20 µM.
Take `CC(=O)O[C@H]1C(=O)[C@@]2(C)[C@H]([C@H](OC(=O)c3ccccc3)[C@]3(O)C[C@H](OC(=O)[C@H](O)[C@@H](NC(=O)c4ccccc4)c4ccccc4)C(C)=C1C3(C)C)[C@]1(OC(C)=O)CO[C@@H]1C[C@@H]2O` [Paclitaxel, paclitaxel]: the “water solubility (estimated)” value in series [5] was 10 to 20 µM.
